Where two headings read alike, the source gives them in different places.
Legend:
HIV-1NL4-3 = assay: HIV-1 infectivity assay in TZM-bl reporter cell line (LTR-luciferase, 48 h); format: cell-based; conditions: Human immunodeficiency virus 1, TZM-bl
Procedure: (§1) In particular, the tables show antiretroviral activity as percent inhibition of HIV-1 infectivity at 1 μM. In brief, this assay uses the TZM-bl reporter cell line, which carries a stable copy of the HIV-1 LTR coupled to luciferase. Cells are infected with HIV-1NL4-3 in the presence and absence of each compound, and luciferase activity is measured 48 h later. This assay measures early events in the HIV-1 life cycle, including viral entry, reverse transcription, nuclear entry and integration, and viral transcription. All assays include control cells infected with Nef-defective HIV-1, which replicates at 30-50% of wild-type in this system. Results are normalized to percent inhibition relative to DMSO-treated control cells infected with wild-type HIV-1 (0% inhibition) and DMSO-treated cells infected with Nef-defective HIV-1 (100% of the Nef-dependent effect)—see column 3. In addition, cell viability is measured in the TZM-bl cell line in the presence of each test compound and in the absence of HIV-1 infection, using the Cell Titer Blue cell viability assay (Promega; column 4).

TZM-bl cell line = format: cell-based
Procedure: as §1

HIV-1 NefNL4-3 = HIV-1 NefNL4-3 (Human immunodeficiency virus type 1 group M subtype B, UniProt P03406, A33V/T15A/T51N/V11I); assay: Surface plasmon resonance binding to recombinant full-length Nef (NL4-3); conditions: for RU30/RUNef (extent of binding): response units at 30 μM relative to Nef immobilized on the SPR chip
[1] = 1.0 μM, TZM-bl reporter cell line, Table 4, read-out: % Infectivity Inhibition
[2] = 48 h, Table 1, TZM-bl cells, 1 μM, 48 h, 100% = Nef-defective HIV-1, read-out: HIV-1 Infectivity % Inhibition Norm. to Δ-Nef @ 1 μM
[3] = KD, M, Table 4, SPR fit 2-step induced fit, KD = koff/kon × koff2/(koff2 + kon2)
[4] = Nef NL4-3 Binding, SPR 2-state fitting KD, Table 1, 2-step induced-fit model
[5] = Table 4, 2-step induced fit, T = 1/koff2
[6] = read-out: Nef NL4-3 Binding, SPR 1:1 or 2-site fitting KD2, Table 1, 2-site fit, second component
[7] = 1.0 μM, uninfected TZM-bl, CellTiter-Blue, Table 4
[8] = Table 2, uninfected TZM-bl cells, 1 μM, Cell Titer Blue
[9] = Nef NL4-3 Binding, SPR 1:1 or 2-site fitting KD2, Table 1, 2-site fit, second component
[10] = Table 1, 2-step induced-fit model, read-out: Nef NL4-3 Binding, SPR 2-state fitting KD
[11] = read-out: Nef NL4-3 Binding, SPR 1:1 or 2-site fitting KD1

COc1cc(N2CCC(CCc3c(C4CC4)nn(-c4nc5cc(Cl)ccc5[nH]4)c3O)CC2)nc(OC)n1 [Compound I-902, 1-(5-chloro-1H-1,3-benzodiazol-2-yl)-3-cyclopropyl-4-{2-[1-(2,6-dimethoxypyrimidin-4-yl)piperidin-4-yl]ethyl}-1H-pyrazol-5-ol]
inhibition at 1 µM (HIV-1NL4-3; [1]): 13.8%
inhibition at 1 µM (HIV-1NL4-3; [2]): 13.8%
% Cell Viability (TZM-bl cell line; human, 1 μM): 100%
Percent Viability @ 1 μM (TZM-bl cells) (TZM-bl cell line; human, 1 μM): 106.5%
Kd (HIV-1 NefNL4-3): 6.58 nM
Kd (HIV-1 NefNL4-3; [3]): 0.00367 nM
Kd (HIV-1 NefNL4-3; [4]): 0.00367 nM
T, minutes (residence time) (HIV-1 NefNL4-3; [5]): 1.46E + 06 minutes
RU30/RUNef (extent of binding) (HIV-1 NefNL4-3): 7.18E- 03

CC(C)CS(=O)(=O)N1CCC(c2nn(-c3nc4ccccc4[nH]3)c(O)c2CCc2ccc(F)cc2)CC1 [Compound I-750, 1-(1H-1,3-benzodiazol-2-yl)-4-[2-(4-fluorophenyl)ethyl]-3-[1-(2-methylpropanesulfonyl)piperidin-4-yl]-1H-pyrazol-5-ol]
inhibition at 1 µM (HIV-1NL4-3; [2]): 63.7%
Percent Viability @ 1 μM (TZM-bl cells) (TZM-bl cell line; human, 1 μM): 93.0%
Kd (HIV-1 NefNL4-3): 0.138 nM
Kd (HIV-1 NefNL4-3; [4]): 1160 nM
Kd (HIV-1 NefNL4-3; [6]): 0.572 nM

CC(C)(C)OC(=O)N1CCC(c2nn(-c3nc4cccnc4[nH]3)c(O)c2CCc2ccc(F)cc2)CC1 [Compound I-220, tert-butyl 4-{4-[2-(4-fluorophenyl)ethyl]-5-hydroxy-1-{3H-imidazo[4,5-b]pyridin-2-yl}-1H-pyrazol-3-yl}piperidine-1-carboxylate]
inhibition at 1 µM (HIV-1NL4-3; [1]): 9.8%
inhibition at 1 µM (HIV-1NL4-3; [2]): 9.8%
% Cell Viability (TZM-bl cell line; human, 1 μM): 100%
Percent Viability @ 1 μM (TZM-bl cells) (TZM-bl cell line; human, 1 μM): 103.6%
Kd (HIV-1 NefNL4-3): 283 nM
Kd (HIV-1 NefNL4-3; [3]): 3950 nM
Kd (HIV-1 NefNL4-3; [4]): 3950 nM
T, minutes (residence time) (HIV-1 NefNL4-3; [5]): 6.92E + 00 minutes
Kd (HIV-1 NefNL4-3; [6]): 3820 nM
RU30/RUNef (extent of binding) (HIV-1 NefNL4-3): 7.24E- 03

CCOC(=O)c1ccc(CCc2c(-c3ccccc3)nn(-c3cc(C(F)(F)F)n[nH]3)c2O)cc1 [Compound I-612]
% Cell Viability (TZM-bl cell line; [7]): 100%
Percent Viability @ 1 μM (TZM-bl cells) (TZM-bl cell line; [8]): 100.7%

CC(C)(C)OC(=O)N1CCC[C@H]1c1nn(-c2nc3ccccc3[nH]2)c(O)c1CCc1ccc(F)cc1 (stereo in doubt) [Compound I-205, tert-butyl 2-[1-(1H-1,3-benzodiazol-2-yl)-4-[2-(4-fluorophenyl)ethyl]-5-hydroxy-1H-pyrazol-3-yl]pyrrolidine-1-carboxylate]
inhibition at 1 µM (HIV-1NL4-3; [1]): 14.3%
inhibition at 1 µM (HIV-1NL4-3; [2]): 14.3%
% Cell Viability (TZM-bl cell line; human, 1 μM): 95.6%
Percent Viability @ 1 μM (TZM-bl cells) (TZM-bl cell line; human, 1 μM): 95.6%
Kd (HIV-1 NefNL4-3): 1090 nM
Kd (HIV-1 NefNL4-3; [3]): 208 nM
Kd (HIV-1 NefNL4-3; [9]): 1100 nM
Kd (HIV-1 NefNL4-3; [4]): 208 nM
T, minutes (residence time) (HIV-1 NefNL4-3; [5]): 9.98E + 01 minutes
RU30/RUNef (extent of binding) (HIV-1 NefNL4-3): 5.81E- 03

CC(C)S(=O)(=O)N1CCC(c2nn(-c3nc4ccccc4[nH]3)c(O)c2CCc2ccc(F)cc2)CC1 [Compound I-751, 1-(1H-1,3-benzodiazol-2-yl)-4-[2-(4-fluorophenyl)ethyl]-3-[1-(propane-2-sulfonyl)piperidin-4-yl]-1H-pyrazol-5-ol]
inhibition at 1 µM (HIV-1NL4-3; [2]): 22.3%
Percent Viability @ 1 μM (TZM-bl cells) (TZM-bl cell line; human, 1 μM): 101.1%
Kd (HIV-1 NefNL4-3): 560 nM

C[C@@](O)(C(=O)N1CCC(CCc2c(C3CC3)nn(-c3nc4ccccc4[nH]3)c2O)CC1)C(F)(F)F [Compound I-783, (2R)-1-(4-{2-[1-(1H-1,3-benzodiazol-2-yl)-3-cyclopropyl-5-hydroxy-1H-pyrazol-4-yl]ethyl}piperidin-1-yl)-3,3,3-trifluoro-2-hydroxy-2-methylpropan-1-one]
inhibition at 1 µM (HIV-1NL4-3; [1]): 5.4%
% Cell Viability (TZM-bl cell line; human, 1 μM): 100%
Kd (HIV-1 NefNL4-3; KD, M, Table 4, SPR fit 1:1 Langmuir, KD = koff/kon): 3370 nM
T, minutes (residence time) (HIV-1 NefNL4-3; Table 4, 1:1 Langmuir fit, T = 1/koff): 4.08E + 00 minutes
RU30/RUNef (extent of binding) (HIV-1 NefNL4-3): 1.38E- 03

Oc1c(CCc2ccc(F)cc2)c(CCCc2ccc(F)cc2)nn1-c1nc2ccccc2[nH]1 [Compound I-120, 1-(1H-1,3-benzodiazol-2-yl)-4-[2-(4-fluorophenyl)ethyl]-3-[3-(4-fluorophenyl)propyl]-1H-pyrazol-5-ol]
inhibition at 1 µM (HIV-1NL4-3; [2]): 70.1%
Percent Viability @ 1 μM (TZM-bl cells) (TZM-bl cell line; human, 1 μM): 89.1%

Oc1c(CCc2ccncc2)c(-c2ccc(F)cc2)nn1-c1cc(C(F)(F)F)n[nH]1 [Compound I-620]
Percent Viability @ 1 μM (TZM-bl cells) (TZM-bl cell line): 100.0%

O=S(=O)(c1c(Cl)nc2sccn12)N1CCC(c2nn(-c3nc4ccccc4[nH]3)c(O)c2CCc2ccc(F)cc2)CC1 [Compound I-752, 1-(1H-1,3-benzodiazol-2-yl)-3-[1-({6-chloroimidazo[2,1-b][1,3]thiazol-5-yl}sulfonyl)piperidin-4-yl]-4-[2-(4-fluorophenyl)ethyl]-1H-pyrazol-5-ol]
inhibition at 1 µM (HIV-1NL4-3; [2]): 14.7%
Percent Viability @ 1 μM (TZM-bl cells) (TZM-bl cell line; human, 1 μM): 97.7%

CS(=O)(=O)c1ccc(-c2nn(-c3cc(C4CC4)n[nH]3)c(O)c2CCC2CCOCC2)cc1 [Compound I-607]
Percent Viability @ 1 μM (TZM-bl cells) (TZM-bl cell line): 100.0%

Oc1c(CCc2ccc(F)cc2)c(C2CCCNC2)nn1-c1nc2ccccc2[nH]1 (stereo not shown) [Compound I-502, 1-(1H-1,3-benzodiazol-2-yl)-4-[2-(4-fluorophenyl)ethyl]-3-(piperidin-3-yl)-1H-pyrazol-5-ol]
Kd (HIV-1 NefNL4-3; [10]): 4510 nM
Kd (HIV-1 NefNL4-3; [11]): 2450 nM

Oc1c(CCc2ccc(F)c(F)c2)c(-c2cnccn2)nn1-c1nc2ccccc2[nH]1 [Compound I-111, 1-(1H-1,3-benzodiazol-2-yl)-4-[2-(3,4-difluorophenyl)ethyl]-3-(pyrazin-2-yl)-1H-pyrazol-5-ol]
Nef NL4-3 Binding, SPR 1:1 or 2-site fitting KD1 (HIV-1 NefNL4-3; Table 1, 1:1 Langmuir fit where the KD2 cell says '1 to 1 fitting', else 2-site fit): No Interaction

CC(C)(C)OC(=O)N1CCCC(c2nn(-c3nc4ccccc4[nH]3)c(O)c2CCc2ccc(F)cc2)C1 (stereo not shown) [Compound I-755, tert-butyl 3-[1-(1H-1,3-benzodiazol-2-yl)-4-[2-(4-fluorophenyl)ethyl]-5-hydroxy-1H-pyrazol-3-yl]piperidine-1-carboxylate]
Kd (HIV-1 NefNL4-3; [10]): 296 nM
Kd (HIV-1 NefNL4-3; [11]): 52.7 nM

Fc1ccc(-c2nn(-c3cc(C(F)(F)F)n[nH]3)cc2CCc2ccccc2)cc1 [Compound I-1501]
Percent Viability @ 1 μM (TZM-bl cells) (TZM-bl cell line; [8]): 102.5%

Fc1ccc(-c2c(CCc3ccccc3)cnn2-c2cc(C(F)(F)F)n[nH]2)cc1 [Compound I-1501]
% Cell Viability (TZM-bl cell line; [7]): 97.9%

Oc1c(CCc2ccc(F)cc2)c(-c2cnccn2)nn1-c1nc2ccccc2[nH]1 [Compound I-103, 1-(1H-1,3-benzodiazol-2-yl)-4-[2-(4-fluorophenyl)ethyl]-3-(pyrazin-2-yl)-1H-pyrazol-5-ol]
Kd (HIV-1 NefNL4-3; [9]): 25400 nM

Oc1c(CCc2ccc(F)cc2)c(C2CCN(c3ncccn3)CC2)nn1-c1nc2ccccc2[nH]1 [Compound I-903, 1-(1H-1,3-benzodiazol-2-yl)-4-[2-(4-fluorophenyl)ethyl]-3-[1-(pyrimidin-2-yl)piperidin-4-yl]-1H-pyrazol-5-ol]
Kd (HIV-1 NefNL4-3; [11]): 9980 nM

CC(C)(C)OC(=O)N1CCC(CCc2c(-c3cccc(S(C)(=O)=O)c3)nn(-c3cc(C(F)(F)F)n[nH]3)c2O)CC1 [Compound I-605]
% Cell Viability (TZM-bl cell line; [7]): 100%
Percent Viability @ 1 μM (TZM-bl cells) (TZM-bl cell line; [8]): 106.0%

C=CCc1c(-c2ccc(C(F)(F)F)cc2)nn(-c2nc3ccccc3[nH]2)c1O [Compound I-115, 1-(1H-1,3-benzodiazol-2-yl)-4-(prop-2-en-1-yl)-3-[4-(trifluoromethyl)phenyl]-1H-pyrazol-5-ol]
Kd (HIV-1 NefNL4-3): 687 nM
Kd (HIV-1 NefNL4-3; [6]): 5700 nM

O=C(OCc1ccccc1)N1CCC(c2nn(-c3nc4ccccc4[nH]3)c(O)c2Cc2ccc(F)c(F)c2)CC1 [Compound I-159, benzyl 4-[1-(1H-1,3-benzodiazol-2-yl)-4-[(3,4-difluorophenyl)methyl]-5-hydroxy-1H-pyrazol-3-yl]piperidine-1-carboxylate]
Kd (HIV-1 NefNL4-3): 384 nM

Reference: patent US20220380341A1, “INHIBITORS OF HIV-1 NEF FOR THE TREATMENT OF HIV DISEASE” (priority 2018, published 2022)
